Columns and labels:
Format in all cases: in vitro ADME
Caco2 cells = assay: Bidirectional Caco permeability; settings: Caco2 cells
Procedure: (§1) CacoReady ^TM 24-transwell plates with plated Caco cells were purchased from Advancell, and were prepared for the experiments following manufacturer’s instructions. Memantine and reference compounds (propranolol, digoxin and vinblatine) were added to either the apical or basolateral chambers of the transwell plate assembly at a concentration of 10 μM prepared in Hanks’ Balanced Salt Solution containing 25 mM HEPES (pH7.4). Lucifer Yellow (LY) was added to the donor buffer in all wells to assess viability of the cell layer. Since LY cannot freely permeate lipophilic barriers, results were rejected when a high degree of LY transport (>100nm/s) was observed. After a 1 h incubation at 37°C, aliquots were taken from both chambers and added to acetonitrile containing an analytical internal standard in a 96-well plate. Concentrations of compound in the samples were measured by (HPLC-MS/MS).
(§2) Papp values were calculated from the relationship:
(§3) Papp = ([compound]acceptor final × Va )/ (A × time ([compound]donor initial )
(§4) The efflux ratio (Er) was calculated as
(§5) Er = Papp (B to A) / Papp (A to B)

[1] = Bidirectional Caco permeability; settings: human, Caco-2, pH 7.4
Procedure: as §1, §2, §3, §4, §5

human PEPT1 = molecular target: T1, human PEPT1 (Homo sapiens, UniProt P46059); assay: Indirect uptake transporter assay, PEPT1
T1 sequence (P46059 1-708): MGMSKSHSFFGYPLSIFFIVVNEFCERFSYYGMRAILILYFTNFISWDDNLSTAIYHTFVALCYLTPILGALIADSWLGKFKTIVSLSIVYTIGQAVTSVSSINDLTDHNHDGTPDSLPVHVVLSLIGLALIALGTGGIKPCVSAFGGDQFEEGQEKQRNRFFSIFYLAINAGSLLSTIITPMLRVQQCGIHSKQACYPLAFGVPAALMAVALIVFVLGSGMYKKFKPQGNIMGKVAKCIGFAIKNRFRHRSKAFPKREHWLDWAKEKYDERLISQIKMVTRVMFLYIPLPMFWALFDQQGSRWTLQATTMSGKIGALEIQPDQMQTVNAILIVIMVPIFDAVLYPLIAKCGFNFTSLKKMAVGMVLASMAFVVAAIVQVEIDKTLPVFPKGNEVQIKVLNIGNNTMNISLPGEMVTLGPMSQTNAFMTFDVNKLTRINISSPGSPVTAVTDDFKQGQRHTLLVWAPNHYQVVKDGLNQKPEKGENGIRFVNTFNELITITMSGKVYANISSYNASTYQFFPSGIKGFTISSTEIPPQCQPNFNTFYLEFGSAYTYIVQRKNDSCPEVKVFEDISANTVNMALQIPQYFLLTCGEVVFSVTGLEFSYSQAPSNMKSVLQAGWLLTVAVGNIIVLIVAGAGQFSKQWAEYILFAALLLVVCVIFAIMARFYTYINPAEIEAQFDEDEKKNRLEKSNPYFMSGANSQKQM
Excerpt: To determine whether memantine is an inhibitor of the human OATP2B1 (OATP-B), OCT1, OCT2, OAT3, PEPT1, PEPT2 uptake transporters. The standard uptake transporter assay is an indirect, inhibitory-type screening assay, performed with cold test article, which in this case was memantine. It provides information on any interaction (substrate or inhibitor) between selected uptake transporters and memantine that would affect the transport of the reporter compound. […] A radiolabeled reporter substrate is transported into the cells transfected with the selected human uptake transporter, and the inhibitory effect of memantine on the transport of this reporter substrate is measured. Values are presented on a relative scale; 100% defined as transport in the presence of the solvent and without memantine (no inhibition), and 0% defined as transport detected without transporter activity. IC50 is defined as the concentration required to inhibit the transport of the reporter substrate by 50%.
The uptake transporter assay was carried out under the conditions described in the table below, with either CHO cells or MDCKII cells stably expressing the respective uptake transporter.
Duplicate incubations of memantine (0 or DMSO control, 0.41, 1.2, 3.7, 11, 33, 100 and 300 µM) were conducted per concentration on transfected and in parental cells. A reference inhibitor (positive control, duplicate) was incubated in transfected cells.
CHO cells were cultured in a 1:1 mixture of Dubelcco’s Modified Eagle’s Medium (DMEM, Lonza, Allendale, NJ) and Ham's F-12 (F-12, Lonza, Allendale, NJ) and MDCKII cells in DMEM at 37°C in an atmosphere of 95:5 air:CO2. […]
After the experiment cells were rinsed with 2 x 100µl of Krebs-Henseleit buffer and lysed with 50 µl of 0.1M NaOH. ^3H-estrone-3-sulfate, ^14C-TEA, ^14C-metformin and ^3H-Gly-Sar transport was determined by total radioactivity by transferring an aliquot (35µl) from each well to a vial containing liquid scintillant for analysis.

**Q.** For CC12CC3CC(C)(C1)CC(N)(C3)C2 [memantine], which “MDR1 (Pgp) substrate” value (Caco2 cells) is on record?
**A.** not a MDR1 (Pgp) substrate

**Q.** And the Papp A→B at 1 h, 10 μM ([1]; 10 μM, pH7.4, 1 h, read-out: Caco Permeability AtoB)?
**A.** 43.4 ×10⁻⁶ cm/s

**Q.** What about the Papp B→A at 1 h, 10 μM ([1]; 10 μM, pH7.4, 1 h, read-out: Caco Permeability BtoA) of the same molecule?
**A.** 47 ×10⁻⁶ cm/s

**Q.** And the efflux ratio at 1 h, 10 μM ([1]; Papp (B to A) / Papp (A to B), read-out: ER (efflux ratio))?
**A.** ~1

**Q.** And the “Maximal Inhibition” value (human PEPT1; PEPT1, up to 300 µM)?
**A.** ~62%

**Q.** And the IC50 (human PEPT1; PEPT1-mediated glycylsarcosine transport)?
**A.** 280 µM

**Q.** And the IC50 (human PEPT1; PEPT1, probe printed in Table 5: E3S (1 μM), methods and text: Gly-Sar)?
**A.** 281 µM
